# Key:
# Format in all cases: cell-based
# [1] = test system: Paracoccus carotinifaciens strain E-396 (FERM BP-4283)
# Description: (§1) Subsequently, a medium of the following composition (glucose 30 g/L, filtered corn steep liquor 30 g/L, ammonium sulfate 1.5 g/L, potassium dihydrogen phosphate 1.5 g/L, disodium hydrogen phosphate dodecahydrate 3.8 g/L, calcium chloride dihydrate 5.0 g/L, magnesium sulfate heptahydrate 0.7 g/L, iron sulfate heptahydrate 1.0 g/L, silicon-based defoaming agent 0.2 g/L) was dispensed in 7.2 ml volumes into cotton-plugged test tubes having an inner diameter of 18 mm to prepare 13 test tubes containing a test tube medium for production. The ingredients used to prepare the test tube medium for production were obtained from lots where microbial cells had been confirmed not to grow well.
# The 12 trace metals indicated in Table 1 were separately prepared in 0.8 ml volumes to have their final concentrations indicated in Table 1 and then added to the above 12 test tubes for production, respectively. The remaining one test tube was supplemented with 0.8 ml of ion exchanged water.
# The resulting culture solution was then inoculated in 0.05 ml volumes into the 13 types of test tube media for production and cultured under shaking at 28° C. for 4 days at 300 spm.
# [2] = test system: Paracoccus sp. strain A-581-1 (FERM BP-4671); assay: Example 6: cobalt concentration series, growth (OD610) and carotenoid levels (HPLC)
# Description: (§2) In the following examples, carotenoids were quantified by high performance liquid chromatography (HPLC) as follows.
# (§3) Two columns of Inertsil SIL-100A, 5 μm (ϕ4.6 mm×250 mm) (GL Sciences Inc., Japan) were connected together for use as a column. For elution, a mixed solution of n-hexane, tetrahydrofuran and methanol (40:20:1) serving as a mobile phase was passed through the column at a flow rate of 1.0 mL per minute at a constant temperature around room temperature. For measurement, samples were each dissolved in tetrahydrofuran and diluted 100-fold with the mobile phase, and 20 μL aliquots of the resulting dilutions were injected into the column. The column eluates were detected at a wavelength of 470 nm. As a standard for quantification, astaxanthin (SIGMA, Cat. No. A9335) was used. The astaxanthin concentration of the standard solution was determined using the following equation after measuring the absorbance (A) of the standard solution at 477 nm and the area percentage % (B) of the astaxanthin peak in HPLC analysis under the above conditions.
# The ingredients used to prepare the test tube medium for seed culture were obtained from lots where microbial cells had been confirmed to grow well.
# The ingredients used to prepare the test tube medium for production were obtained from lots where microbial cells had been confirmed not to grow well.
# The resulting culture solution was then inoculated in 0.05 ml volumes into the 7 types of test tube media for production having different cobalt concentrations, and cultured under shaking at 29° C. for 4 days at 300 spm.
# (§4) After being cultured for 4 days, the culture solutions were each measured for microbial cell growth by OD610 and measure for carotenoid levels by HPLC.
# [3] = test system: Paracoccus zeaxanthinifaciens strain ATCC 21588; assay: Example 7: cobalt concentration series, growth (OD610) and carotenoid levels (HPLC)
# Description: as §2, §3
# as §1, with “9” for “13”
# The resulting culture solution was then inoculated in 0.05 ml volumes into the 9 types of test tube media for production having different cobalt concentrations, and cultured under shaking at 28° C. for 4 days at 300 spm.
# as §4
# [4] = cobalt added 0.00042 μmol/L, total 0.0024 μmol/L
# [5] = cobalt added 0.0042 μmol/L, total 0.0062 μmol/L
# [6] = cobalt added 0.042 μmol/L, total 0.044 μmol/L
# [7] = cobalt added 0.42 μmol/L, total 0.42 μmol/L
# [8] = cobalt added 4.2 μmol/L, total 4.2 μmol/L
# [9] = cobalt added 42 μmol/L, total 42 μmol/L
# [10] = cobalt added 0.021 μmol/L, total 0.023 μmol/L
# [11] = cobalt added 21 μmol/L, total 21 μmol/L
compound,measurement,setting,value
O.O.O.O.O.O.[Cl-].[Cl-].[Co+2] [Cobalt chloride hexahydrate],"microbial cell growth (by OD610), in words",[1],good growth
same,OD610,"[1]; each trace metal added singly at final concentration of Table 1, shaking at 28° C. for 4 days",32
same,Astaxanthin,[2]; [4],0.3 mg/L
same,OD610,[2]; [4],3
same,Total carotenoid,[2]; [4],0.9 mg/L
same,Astaxanthin,[2]; [5],0.5 mg/L
same,OD610,[2]; [5],5
same,Total carotenoid,[2]; [5],1.7 mg/L
same,Astaxanthin,[2]; [6],2.0 mg/L
same,OD610,[2]; [6],21
same,Total carotenoid,[2]; [6],5.3 mg/L
same,Astaxanthin,[2]; [7],2.1 mg/L
same,OD610,[2]; [7],22
same,Total carotenoid,[2]; [7],5.6 mg/L
same,Astaxanthin,[2]; [8],1.2 mg/L
same,OD610,[2]; [8],21
same,Total carotenoid,[2]; [8],5.5 mg/L
same,Astaxanthin,[2]; [9],0.0 mg/L
same,OD610,[2]; [9],2
same,Total carotenoid,[2]; [9],0.2 mg/L
same,Carotenoid: Zeaxanthin,[3]; [4],0.6 mg/L
same,Carotenoid: β-Carotene,[3]; [4],0.0 mg/L
same,Carotenoid: β-Cryptoxanthin,[3]; [4],0.0 mg/L
same,OD610,[3]; [4],2
same,Total carotenoid,[3]; [4],0.6 mg/L
same,Carotenoid: Zeaxanthin,[3]; [5],2.0 mg/L
same,Carotenoid: β-Carotene,[3]; [5],0.2 mg/L
same,Carotenoid: β-Cryptoxanthin,[3]; [5],0.1 mg/L
same,OD610,[3]; [5],6
same,Total carotenoid,[3]; [5],2.3 mg/L
same,Carotenoid: Zeaxanthin,[3]; [10],10.6 mg/L
same,Carotenoid: β-Carotene,[3]; [10],0.7 mg/L
same,Carotenoid: β-Cryptoxanthin,[3]; [10],0.3 mg/L
same,OD610,[3]; [10],25
same,Total carotenoid,[3]; [10],11.6 mg/L
same,Carotenoid: Zeaxanthin,[3]; [6],13.6 mg/L
same,Carotenoid: β-Carotene,[3]; [6],0.8 mg/L
same,Carotenoid: β-Cryptoxanthin,[3]; [6],0.3 mg/L
same,OD610,[3]; [6],29
same,Total carotenoid,[3]; [6],14.7 mg/L
same,Carotenoid: Zeaxanthin,[3]; [7],13.4 mg/L
same,Carotenoid: β-Carotene,[3]; [7],0.7 mg/L
same,Carotenoid: β-Cryptoxanthin,[3]; [7],0.3 mg/L
same,OD610,[3]; [7],29
same,Total carotenoid,[3]; [7],14.4 mg/L
same,Carotenoid: Zeaxanthin,[3]; [8],12.9 mg/L
same,Carotenoid: β-Carotene,[3]; [8],0.7 mg/L
same,Carotenoid: β-Cryptoxanthin,[3]; [8],0.3 mg/L
same,OD610,[3]; [8],28
same,Total carotenoid,[3]; [8],13.9 mg/L
same,Carotenoid: Zeaxanthin,[3]; [11],10.8 mg/L
same,Carotenoid: β-Carotene,[3]; [11],0.6 mg/L
same,Carotenoid: β-Cryptoxanthin,[3]; [11],0.4 mg/L
same,OD610,[3]; [11],24
same,Total carotenoid,[3]; [11],11.8 mg/L
same,Carotenoid: Zeaxanthin,[3]; [9],6.4 mg/L
same,Carotenoid: β-Carotene,[3]; [9],0.3 mg/L
same,Carotenoid: β-Cryptoxanthin,[3]; [9],0.3 mg/L
same,OD610,[3]; [9],18
same,Total carotenoid,[3]; [9],7.0 mg/L
